Patent US20090062301A1, “PHARMACEUTICAL COMBINATION COMPOSITION COMPRISING AT LEAST ONE PKC INHIBITOR AND AT LEAST ONE JA K3 KINASE INHIBITOR FOR TREATING AUTOIMMUNE DISORDERS” (priority 2006, published 2009)

Tested on: donor heart graft (rejection)
Experiment: Rat heart transplantation (graft survival)
Assay type: in vivo, rat (Male Lewis and BN)
Text: A. Rat Heart Transplantation
The strain combination used: Male Lewis (RT^1 haplotype) and BN (RT^1 haplotype). The animals are anaesthetised using inhalational isofluorane. […] The aorta is ligated and divided distal to the first branch and the brachiocephalic trunk is divided at the first bifurcation. The left pulmonary artery is ligated and divided and the right side divided but left open. All other vessels are dissected free, ligated and divided and the donor heart is removed into iced saline.
The recipient is prepared by dissection and cross-clamping of the infra-renal abdominal aorta and vena cava. The graft is implanted with end-to-side anastomoses, using 10/0 monofilament suture, between the donor brachiocephalic trunk and the recipient aorta and the donor right pulmonary artery to the recipient vena cava. The clamps are removed, the graft tethered retroabdominally, the abdominal contents washed with warm saline and the animal is closed and allowed to recover under a heating lamp. Graft survival is monitored by daily palpation of the beating donor heart through the abdominal wall. Rejection is considered to be complete when heart beat stops.

Structure (SMILES)	graft survival (rat, in vivo)	EC50 (672 h, rat heart transplantation, CP-690,550 in mono-citrate salt form, concentration in blood, read-out: EC50 (drug concentration in blood at which 50% of the animals maintain their graft for >28 days)) [µg/mL]	graft survival (rat heart transplantation, Compound A in the acetate form at 1 to 30 mg/kg/day and CP-690,550 mono-citrate at an EC50 of 60 ng/ml)
CN1CCN(c2nc(C3=C(c4c[nH]c5ccccc45)C(=O)NC3=O)c3ccccc3n2)CC1 [Compound A, 3-(1.H.-indol-3-yl)-4-[2-(4-methyl-piperazin-1-yl)-quinazolin-4-yl]-pyrrole-2,5-dione]	significantly increase the graft survival	–	–
C[C@@H]1CCN(C(=O)CC#N)C[C@@H]1N(C)c1ncnc2[nH]ccc12 [CP-690,550, 3-{(3R,4R)-4-methyl-3-[methyl-(7H-pyrrolo[2,3-d]pyrimidin-4-yl)-amino]-piperidin-1-yl}-3-oxo-propionitrile]	–	0.06	significantly increase the graft survival
